One data set concerns the target T1, LRRK2 WT (Homo sapiens, UniProt Q5S007).
T1 construct: comprises residue 970 to 2527 of the full length human wild-type LRRK2 kinase; purchased Invitrogen (Life Technologies Corporation)
The data set is described as follows: LRRK2 wild-type kinase activity assay (LanthaScreen TR-FRET). It counts as biochemical. As to conditions: 1 nM LRRK2 WT, 1.3 mM ATP, 3.5 h at 30° C.; n≥2 tests. The procedure:
(§1) LRRK2 kinase activity was measured using a LanthaScreen kinase activity assay available from Invitrogen (Life Technologies Corporation). The assay is a homogeneous time resolved-fluorescence resonance energy transfer (TR-FRET) assay that measures phosphorylation of a fluorescein-labelled peptide substrate Fluorescein-ERM LRRKtide obtainable from Life Technologies Corporation as a result of LRRK2 kinase activity. The phosphorylated peptide is recognized by a terbium-labelled phospho-specific anti-LRRKtide antibody (pLRRKtide antibody), obtainable from Life Technologies Corporation and, subsequently, the phosphorylated LRRKtide can be quantified by the extent of TR-FRET between the terbium donor and fluorescein acceptor. The LRRK2 kinase was obtained from Invitrogen (Life Technologies Corporation) and comprises residue 970 to 2527 of the full length human wild-type LRRK2 kinase, or a similar sequence with the G2019S mutation. As discussed above, this mutation increases the kinase activity relative to the wild type. The kinase reactions were performed in a 20 μL volume in 384-well plates. […] The mixture was further incubated for 30 minutes at RT. […] The measurement was repeated 30 times for fluorescein and 30 times for terbium emission with a 1000 μs time window between repeats. TR-FRET measurements were performed on a Biotek Synergy plate. The TR-FRET signal was calculated as the emission-ratio at 520 nm over 495 nm. The TR-FRET ratio readout for test compounds was normalized to 0% inhibition corresponding to TR-FRET ratio measured in control wells with no inhibition of the kinase activity and 100% inhibition corresponding to TR-FRET ratio measured in control wells with inhibitor. […] C is the IC50 value and D is the Hill slope coefficient. IC50 estimates were obtained from independent experiment and the logarithmic average was calculated.
In general terms: TR-FRET usually uses a lanthanide donor and a delayed reading to cut background.

A short description of data set [1]: Free fraction in plasma (equilibrium dialysis). The data set is classed as in vitro ADME, male Sprague-Dawley rat. As to conditions: rat plasma, 1 μM, 5 h at 37° C. As to the method: The free fractions in male Sprague-Dawley rat or female Gottingen minipig plasma (fuplasma) and rat brain homogenate (fubrain) were determined by equilibrium dialysis using 96-well HTD-dialysis plates with dialysis membranes (molecular weight cut off 12-14 KDa). One side of the HTD-dialysis plate was loaded with matrix (plasma or brain homogenate) and the other side with buffer (100 mM sodium phosphate buffer, pH 7.4). Test compounds were dissolved in DMSO then spiked (5 μL of 0.2 mM) into blank (995 μL) plasma or diluted brain homogenate (1:4 ratio in phosphate buffer) giving a final nominal concentration 1 μM (≤0.5% DMSO). The matrices were loaded into respective chambers and equilibrated against phosphate buffer for 5 h at 37° C. (in a humidified air incubator with 5% CO2 with shaking). Samples from both chambers (buffer and plasma or brain homogenate) were aliquoted to fresh 96-well polypropylene plates then matrix matched using an equal volume of opposite blank matrix before extraction with cold solvent (3 volumes acetonitrile) containing an appropriate bioanalytical internal standard. After centrifugation (20 min, 3200 g, 4° C.) the supernatants were diluted with appropriate volumes of water and compound concentrations were quantified by LC/MS-MS against matrix matched calibration standards. The fuplasma and fubrain were calculated as a percent free according to equation 4 below.
Where [F] is the analyte concentration on the buffer (receiver) side of the membrane; [T] is the analyte concentration on the plasma or brain (donor) side of the membrane; [TO] is the analyte concentration in the plasma or brain sample at time zero; D is matrix dilution factor which is determined as 4 for brain matrix and 1 for plasma matrix in these assays.

The next data set concerns the target T2, LRRK2 G2019S (Homo sapiens, UniProt Q5S007, G2019S).
T2 construct: purchased Invitrogen (Life Technologies Corporation)
The data set is described as follows: LRRK2 G2019S kinase activity assay (LanthaScreen TR-FRET). It counts as biochemical. As to conditions: 250 pM LRRK2 G2019S, 1.3 mM ATP, 3 h at 30° C.; n≥2 tests. The procedure: as §1

The nature of data set [2]: Rat B/P (brain disposition). The data set is classed as in vivo, male Sprague-Dawley rats. As to conditions: male, Sprague-Dawley; for concentration at 0.5 h / Kp uu at 0.5 h / Kp at 0.5 h: time point 0.5 h; for concentration at 0.5 h / Kp at 0.5 h / concentration at 1 h / Kp at 1 h: mean ± stdev; for Kp uu at 0.5 h / Kp at 0.5 h / Kp uu at 1 h / Kp at 1 h: brain/plasma; for Kp uu at 0.5 h / Kp uu at 1 h: fubrain from brain homogenate; for Kp at 0.5 h / Kp at 1 h: n = 3; for concentration at 1 h / Kp uu at 1 h / Kp at 1 h: time point 1.0 h. The procedure:
Brain disposition was evaluated for each compound in male Sprague-Dawley rats (n=3, standard body weight). […] Isolated plasma and brain homogenates were extracted by standard protein precipitation in acetonitrile, containing internal standard, followed by LC-MS/MS analysis using an optimized analytical method. Concentrations of test compound in plasma and brain were quantified against matrix matched calibration standards. The total plasma and brain concentration data are presented in Table 7 alongside the calculated brain Kp (total brain concentration:total plasma concentration ratio).

Where [3] appears, read: brain, oral gavage 5 mg/kg, n = 3, read-out: Total brain concentration.
Setting [4] is: plasma, oral gavage 5 mg/kg, n = 3, read-out: Total plasma concentration.
Where [5] appears, read: brain, oral gavage 10 mg/kg, n = 3, read-out: Total brain concentration.
Where [6] appears, read: po, 10 mg/kg, oral gavage 10 mg/kg.
Setting [7] is: plasma, oral gavage 10 mg/kg, n = 3, read-out: Total plasma concentration.

The values below come from patent US11780851B2, “LRRK2 inhibitors” (H. Lundbeck A/S, priority 2021, dated 2023).

Where two headings read alike, the source gives them in different places.

T1 sequence (Q5S007 970-2527): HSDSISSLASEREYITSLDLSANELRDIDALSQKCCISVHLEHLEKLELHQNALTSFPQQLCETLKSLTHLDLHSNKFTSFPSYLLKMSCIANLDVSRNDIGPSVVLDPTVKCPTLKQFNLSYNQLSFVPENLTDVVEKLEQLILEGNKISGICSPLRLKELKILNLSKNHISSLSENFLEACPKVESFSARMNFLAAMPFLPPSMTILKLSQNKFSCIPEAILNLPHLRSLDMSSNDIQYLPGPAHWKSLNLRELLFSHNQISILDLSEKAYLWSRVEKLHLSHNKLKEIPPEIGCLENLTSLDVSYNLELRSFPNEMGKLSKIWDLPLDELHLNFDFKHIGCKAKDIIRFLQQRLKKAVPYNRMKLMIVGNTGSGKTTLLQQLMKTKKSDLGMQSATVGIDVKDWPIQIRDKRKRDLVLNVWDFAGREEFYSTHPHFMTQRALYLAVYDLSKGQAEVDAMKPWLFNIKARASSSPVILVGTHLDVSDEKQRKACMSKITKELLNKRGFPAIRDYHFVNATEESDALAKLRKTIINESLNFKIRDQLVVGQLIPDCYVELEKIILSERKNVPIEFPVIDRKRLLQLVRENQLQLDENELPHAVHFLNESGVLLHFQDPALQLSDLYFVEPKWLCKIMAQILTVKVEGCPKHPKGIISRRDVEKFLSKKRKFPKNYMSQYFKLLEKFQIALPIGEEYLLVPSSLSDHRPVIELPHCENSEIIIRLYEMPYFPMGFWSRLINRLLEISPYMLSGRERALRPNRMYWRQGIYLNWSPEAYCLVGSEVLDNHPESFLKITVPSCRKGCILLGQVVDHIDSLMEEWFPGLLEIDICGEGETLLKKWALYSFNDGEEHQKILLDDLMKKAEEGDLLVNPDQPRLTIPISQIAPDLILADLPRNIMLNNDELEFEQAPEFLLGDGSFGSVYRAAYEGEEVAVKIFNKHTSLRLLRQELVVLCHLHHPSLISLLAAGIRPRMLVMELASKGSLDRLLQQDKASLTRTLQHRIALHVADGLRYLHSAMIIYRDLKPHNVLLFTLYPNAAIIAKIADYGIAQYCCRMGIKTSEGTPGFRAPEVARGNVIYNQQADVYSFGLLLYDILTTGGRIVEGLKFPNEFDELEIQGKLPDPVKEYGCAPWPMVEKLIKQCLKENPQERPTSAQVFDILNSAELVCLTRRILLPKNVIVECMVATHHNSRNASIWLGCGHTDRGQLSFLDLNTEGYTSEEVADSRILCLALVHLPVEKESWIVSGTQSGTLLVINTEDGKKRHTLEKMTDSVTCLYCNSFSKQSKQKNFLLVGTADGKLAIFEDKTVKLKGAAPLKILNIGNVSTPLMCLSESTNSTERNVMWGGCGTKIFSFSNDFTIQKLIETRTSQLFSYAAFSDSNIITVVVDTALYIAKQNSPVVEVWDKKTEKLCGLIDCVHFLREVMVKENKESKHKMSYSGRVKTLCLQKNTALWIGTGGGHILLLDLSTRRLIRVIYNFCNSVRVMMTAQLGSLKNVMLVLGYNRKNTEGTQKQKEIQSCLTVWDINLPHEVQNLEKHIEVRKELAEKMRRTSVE
T2 sequence (Q5S007 970-2527 G2019S): as the sequence (Q5S007 970-2527) above, with G1050S counted along it

For orientation: IC50 means the concentration that gives 50% inhibition. In general, Kp refers to the ratio of the level in a tissue or fluid to that in plasma or blood. Consider `Cc1c2c(nn1[C@@H]1CC1(F)F)OCCCn1nc(Cl)c3cnc(nc31)N2` (single isomer, unassigned) [Example 40, (+)-(R) or (S)-8-Chloro-2-(2,2-difluorocyclopropyl)-3-methyl-2,4,12,13-tetrahydro-11H-5,7-(azenometheno)dipyrazolo[3,4-b:5′,1′-g][1]oxa[4,6,8]triazacycloundecine], for which the IC50 at LRRK2 WT came to 28 nM; at LRRK2 G2019S, 12 nM. In data set [1], the “fuplasma (% free)” value stood at 12.7 % free. Further, the values for the concentration at 0.5 h in data set [2] (setting [3]) and in data set [2] (setting [4]) were 138 ± 12 ng/g and 72 ± 8 ng/mL, respectively. The compound further returned a Kp uu at 0.5 h in data set [2] (oral gavage 5 mg/kg) of 0.72 ± 0.08. In data set [2] (oral gavage 5 mg/kg), this compound registered a Kp at 0.5 h of 1.93 ± 0.22.
Regarding `Cc1c2c(nn1[C@H]1CCOC[C@]1(C)F)OCCCn1nc(Cl)c3cnc(nc31)N2` (single isomer, unassigned) [Example 47, (+)-8-Chloro-2-((3R,4S) or (3S,4R)-3-Fluoro-3-methyltetrahydro-2H-pyran-4-yl)-3-methyl-2,4,12,13-tetrahydro-11H-5,7-(azenometheno)dipyrazolo[3,4-b:5′,1′-g][1]oxa[4,6,8]triazacycloundecine], the results for the concentration for half-maximal inhibition (IC50) at LRRK2 WT and on LRRK2 G2019S were 13 nM and 3.1 nM, respectively. Further, the “fuplasma (% free)” value in data set [1] is reported as 24.8 % free. In addition, the concentration at 0.5 h in data set [2] (setting [3]) was determined as 235 ± 119 ng/g; in data set [2] (setting [4]), 83 ± 27 ng/mL. Also, the Kp uu at 0.5 h in data set [2] (oral gavage 5 mg/kg) is 0.57 ± 0.17. The same compound showed a Kp at 0.5 h in data set [2] (oral gavage 5 mg/kg) of 2.69 ± 0.83.
Take `Cc1c2c(nn1[C@@H]1CCOC3(CC3)C1)OCCCn1nc(Cl)c3cnc(nc31)N2` (single isomer, unassigned) [Example 53, (+)-(R) or (S)-8-Chloro-3-methyl-2-(4-oxaspiro[2.5]octan-7-yl)-2,4,12,13-tetrahydro-11H-5,7-(azenometheno)dipyrazolo[3,4-b:5′,1′-g][1]oxa[4,6,8]triazacycloundecine]: the 50% inhibitory concentration (IC50) at LRRK2 WT amounted to 3.2 nM; at LRRK2 G2019S, 1.3 nM. Also, the “fuplasma (% free)” value in data set [1] is 17.1 % free. In addition, the concentration at 1 h was found to be 363 ± 138 ng/g in data set [2] (setting [3]) and 203 ± 67 ng/mL in data set [2] (setting [4]). In data set [2] (oral gavage 5 mg/kg), this compound showed a Kp uu at 1 h of 0.65 ± 0.06. Besides, the concentration ratio (Kp) at 1 h in data set [2] (oral gavage 5 mg/kg) came out at 1.77 ± 0.16.
For the compound `Cc1c2c(nn1C1CCOCC1)OCCCn1nc(C(F)(F)F)c3cnc(nc31)N2` [Example 5, 3-Methyl-2-(tetrahydro-2H-pyran-4-yl)-8-(trifluoromethyl)-2,4,12,13-tetrahydro-11H-5,7-(azenometheno)dipyrazolo[3,4-b:5′,1′-g][1]oxa[4,6,8]triazacycloundecine], the concentration for half-maximal inhibition (IC50) on LRRK2 WT is 23 nM; at LRRK2 G2019S, 7.4 nM. Also, the “fuplasma (% free)” value in data set [1] is 32.2 % free. In addition, the concentration at 1 h in data set [2] (setting [5]) came to 744 ± 281 ng/g; in data set [2] (setting [7]), 336 ± 96 ng/mL. The compound also registered a Kp at 1 h in data set [2] (oral gavage 10 mg/kg) of 2.19 ± 0.25. Further, the Kp uu at 1 h in data set [2] (setting [6]) was 0.29 ± 0.03.
For `Cc1c2c(nn1C1CCOCC1)OCCCn1nc(Br)c3cnc(nc31)N2` [Example 6, 8-Bromo-3-methyl-2-(tetrahydro-2H-pyran-4-yl)-2,4,12,13-tetrahydro-11H-5,7-(azenometheno)dipyrazolo[3,4-b:5′,1′-g][1]oxa[4,6,8]triazacycloundecine], the “fuplasma (% free)” value in data set [1] is recorded as 34.3 % free. The concentration at 1 h in data set [2] (setting [5]) was determined as 1460 ± 244 ng/g; in data set [2] (setting [7]), 738 ± 24 ng/mL. In data set [2] (oral gavage 10 mg/kg), the Kp at 1 h was determined as 1.97 ± 0.27. In data set [2] (setting [6]), this compound had a Kp uu at 1 h of 0.44 ± 0.06.
Regarding `Cc1c2c(nn1C1CCOCC1)OCCCn1nc(C3CC3)c3cnc(nc31)N2` [Example 7, 8-Cyclopropyl-3-methyl-2-(tetrahydro-2H-pyran-4-yl)-2,4,12,13-tetrahydro-11H-5,7-(azenometheno)dipyrazolo[3,4-b:5′,1′-g][1]oxa[4,6,8]triazacycloundecine], the values for the IC50 at LRRK2 WT and on LRRK2 G2019S were 210 nM and 63 nM, respectively. Also, the “fuplasma (% free)” value in data set [1] was 28.7 % free. The concentration at 1 h in data set [2] (setting [5]) came out at 949 ± 463 ng/g; in data set [2] (setting [7]) it was 1550 ± 527 ng/mL. The compound also yielded a Kp uu at 1 h in data set [2] (oral gavage 10 mg/kg) of 0.28 ± 0.1. Further, the Kp at 1 h in data set [2] (oral gavage 10 mg/kg) came out at 0.63 ± 0.23.
`Clc1nn2c3nc(ncc13)Nc1c(nn(C3CCOCC3)c1C1CC1)OCCC2` [Example 10, 8-Chloro-3-cyclopropyl-2-(tetrahydro-2H-pyran-4-yl)-2,4,12,13-tetrahydro-11H-5,7-(azenometheno)dipyrazolo[3,4-b:5′,1′-g][1]oxa[4,6,8]triazacycloundecine]: the concentration for half-maximal inhibition (IC50) on LRRK2 WT was determined as 19 nM; on LRRK2 G2019S, 6.2 nM. Also, in data set [1], the “fuplasma (% free)” value came to 30.2 % free. The concentration at 1 h is 502 ± 92 ng/g in data set [2] (setting [5]) and 314 ± 83 ng/mL in data set [2] (setting [7]). Moreover, the Kp at 1 h in data set [2] (oral gavage 10 mg/kg) was 1.62 ± 0.16. Also, the Kp uu at 1 h in data set [2] (setting [6]) came to 0.38 ± 0.04.
In the case of `Cc1c2c(nn1C1(C)COC1)OCCCn1nc(Cl)c3cnc(nc31)N2` [Example 14, 8-Chloro-3-methyl-2-(3-methyloxetan-3-yl)-2,4,12,13-tetrahydro-11H-5,7-(azenometheno)dipyrazolo[3,4-b:5′,1′-g][1]oxa[4,6,8]triazacycloundecine], the half-inhibitory concentration (IC50) worked out at 16 nM at LRRK2 WT and 4 nM on LRRK2 G2019S. Moreover, the “fuplasma (% free)” value in data set [1] amounted to 38.0 % free. The concentration at 1 h worked out at 421 ± 168 ng/g in data set [2] (setting [5]) and 280 ± 102 ng/mL in data set [2] (setting [7]). Moreover, the partition ratio (Kp) at 1 h in data set [2] (oral gavage 10 mg/kg) stood at 1.52 ± 0.37. The same compound showed a Kp uu at 1 h in data set [2] (setting [6]) of 0.3 ± 0.07.
With `Cc1c2c(nn1[C@H]1CC[C@H](F)CC1)OCCCn1nc(Cl)c3cnc(nc31)N2` [Example 25, 8-Chloro-2-((1r,4r)-4-fluorocyclohexyl)-3-methyl-2,4,12,13-tetrahydro-11H-5,7-(azenometheno)dipyrazolo[3,4-b:5′,1′-g][1]oxa[4,6,8]triazacycloundecine], the 50% inhibitory concentration (IC50) came out at 16 nM on LRRK2 WT and 5.1 nM at LRRK2 G2019S. The “fuplasma (% free)” value in data set [1] stood at 12.0 % free. Besides, the concentration at 1 h in data set [2] (setting [5]) came to 110 ± 18 ng/g; in data set [2] (setting [7]) it was 38 ± 6 ng/mL. In data set [2] (oral gavage 10 mg/kg), this compound gave a Kp at 1 h of 2.87 ± 0.04. In data set [2] (setting [6]), this compound showed a Kp uu at 1 h of 0.65 ± 0.01.
